Experimental data from patent US10919893B2, “Process for the preparation of crystalline form C of avibactam sodium” (Sandoz AG, priority 2017, dated 2021).
Where a name gives a salt, the structure may show the parent alone.

Columns and labels:
bacteria = conditions: at clinically relevant doses; cited from earlier work
[1] = solid-state stability of avibactam forms against moisture, temperature stress and storage; type: physicochemical
[2] = cited from earlier work

NC(=O)[C@@H]1CC[C@@H]2CN1C(=O)N2OS(=O)(=O)O [Avibactam, [(2S,5R)-2-carbamoyl-7-oxo-1,6-diazabicylco[3.2.1]octan-6-yl] hydrogen sulfate]
antibacterial activity in itself (bacteria): no antibacterial activity

NC(=O)[C@@H]1CC[C@@H]2CN1C(=O)N2OS(=O)(=O)O [form A, avibactam sodium]
behaviour upon further temperature stress [1]: dehydrates to the anhydrous form B

NC(=O)[C@@H]1CC[C@@H]2CN1C(=O)N2OS(=O)(=O)O [form C, avibactam sodium]
polymorphic stability (conversion to other crystalline forms) ([2]; ambient conditions and conditions of manufacturing of solid pharmaceutical dosage forms): does not convert to other crystalline forms

NC(=O)[C@@H]1CC[C@@H]2CN1C(=O)N2OS(=O)(=O)O [form E, avibactam sodium]
temperature above which the form dehydrates to monohydrate form A [1]: above 60 °C | relative humidity above which the form is particularly stable ([2]; per WO 2011/042560 A1): > 70% | stability during long storage and at higher temperature ([2]; per WO 2011/042560 A1): tends to lose water and to hydrolyze
